Assay results published in US11203613B2, “Peptidomimetic proteasome inhibitors” (CORNELL UNIVERSITY, priority 2017, dated 2021).
Several values for one entry are separate records, joined by “and”; a condition that tells them apart may be missing. Equal values may be shown once. Read-outs that look alike come from different tables or passages of the source.

Legend:
[1] = target: Human Constitutive (Hu C-20S) β5 Active Subunit (Homo sapiens, UniProt P28074); assay: IC50 determination, human constitutive 20S proteasome β5c (suc-LLVY-AMC hydrolysis); assay type: biochemical; settings: Table 2; several values in a cell are repeat determinations; read-out: Hu c-20S IC50
[2] = target: Mtb20SOG (Mycobacterium tuberculosis, UniProt P9WHT9); assay: biochemical
Sequence of Mtb20SOG (P9WHT9 58-291): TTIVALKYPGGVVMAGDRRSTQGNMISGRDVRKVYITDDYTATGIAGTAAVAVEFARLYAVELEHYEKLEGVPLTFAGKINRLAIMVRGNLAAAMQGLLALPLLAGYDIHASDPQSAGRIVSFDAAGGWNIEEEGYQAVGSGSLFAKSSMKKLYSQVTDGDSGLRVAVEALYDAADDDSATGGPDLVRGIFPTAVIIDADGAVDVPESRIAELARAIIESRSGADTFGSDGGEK

[3] = Table 2, several values in a cell are repeat determinations

| Structure (SMILES) | IC50 [1] | IC50 [2] | IC50 [2, 3] |
| --- | --- | --- | --- |
| Cc1cc(C(=O)NC(CC(=O)N2CCCCC2C)C(=O)NC(C)c2ncc(-c3ccccc3)[nH]2)no1 (mixture of isomers) [CF-503094] | 12 µM and 11 µM | 0.471 µM and 0.726 µM | – |
| C[C@H](NC(=O)[C@H](CC(=O)N1CCCC[C@@H]1C)NC(=O)C1CC(C)(C)C1)c1nc2c(F)cccc2[nH]1 (single isomer, unassigned) [CF-503465] | 7.62 µM and 1.92 µM | – | 0.025 µM and 0.032 µM |
| Cc1cc(C(=O)N[C@@H](CC(=O)N2CCCC[C@@H]2C)C(=O)N[C@@H](C)c2ncc(-c3ccccc3)[nH]2)no1 [CF-503102] | 14 µM and 10 µM | – | 0.717 µM and 0.44 µM |
| Cc1cc(C(=O)N[C@@H](CC(=O)N2CCCC[C@@H]2C)C(=O)N[C@@H](C)c2ncc(-c3ccccc3F)[nH]2)no1 [CF-503103] | > 15 µM | 0.16 µM and 0.306 µM | – |
| Cc1cc(C(=O)N[C@@H](CC(=O)N2CCCC[C@@H]2C)C(=O)N[C@@H](C)c2ncc(-c3ccc(F)cc3)[nH]2)no1 [CF-503105] | > 18 µM and 19 µM | 0.259 µM and 0.256 µM | – |
| Cc1cc(C(=O)N[C@@H](CC(=O)N2CCCC[C@@H]2C)C(=O)N[C@@H](C)c2ncc(-c3ccc(F)cc3F)[nH]2)no1 [CF-503111] | 7.2 µM and 5.48 µM | 0.041 µM and 0.034 µM | – |
| Cc1cc(C(=O)N[C@@H](CC(=O)N2CCC[C@@H]2c2ccccc2)C(=O)NC(C)c2nc3ccccc3[nH]2)no1 (stereo partly drawn) [CF-503127] | 7 µM | 0.084 µM and 0.1 µM | – |
| Cc1cc(C(=O)N[C@@H](CC(=O)N2CCCC[C@@H]2C)C(=O)N[C@@H](C)c2ncc(Cc3ccccc3)[nH]2)no1 [CF-503133] | 5.59 µM and 7.08 µM | – | 0.266 µM and 0.231 µM |
| Cc1cc(C(=O)N[C@@H](CC(=O)N2CCC[C@@H]2c2ccccc2)C(=O)N[C@@H](C)c2ncc(Cc3ccccc3)[nH]2)no1 [CF-503134] | 7.4 µM and 7.6 µM | 0.09 µM and 0.057 µM | – |
| C[C@H](NC(=O)[C@H](CC(=O)N1CCCC[C@@H]1C)NC(=O)CC1CCOCC1)c1ncc(Cc2ccccc2)[nH]1 [CF-503135] | 9.12 µM and 13.5 µM | – | 0.45 µM and 0.386 µM |
| C[C@H](NC(=O)[C@H](CC(=O)N1CCCC[C@@H]1C)NC(=O)CC1CC1)c1ncc(Cc2ccccc2)[nH]1 [CF-503136] | 10.4 µM | – | 0.925 µM |
| C[C@H](NC(=O)[C@H](CC(=O)N1CCC[C@@H]1c1ccccc1)NC(=O)CC1CC1)c1ncc(Cc2ccccc2)[nH]1 [CF-503137] | 12.6 µM and 10.6 µM | 0.078 µM and 0.064 µM | – |
| C[C@H](NC(=O)[C@H](CC(=O)N1CCCC[C@@H]1C)NC(=O)CC1CC1)c1ncc(-c2ccc(F)cc2F)[nH]1 [CF-503138] | 11.8 µM and 10.5 µM | – | 0.169 µM and 0.085 µM |
| C[C@H](NC(=O)[C@H](CC(=O)N1CCCC[C@@H]1C)NC(=O)CC1CCOCC1)c1ncc(-c2ccc(F)cc2F)[nH]1 [CF-503139] | 12.8 µM and 10.3 µM | 0.089 µM and 0.148 µM | – |
| C[C@H](NC(=O)[C@H](CC(=O)N1CCCC[C@@H]1C)NS(=O)(=O)Cc1ccccc1)c1ncc(-c2ccc(F)cc2F)[nH]1 [CF-503140] | 6.13 µM | – | 0.379 µM |
| CC(C)CS(=O)(=O)N[C@@H](CC(=O)N1CCCC[C@@H]1C)C(=O)N[C@@H](C)c1ncc(-c2ccc(F)cc2F)[nH]1 [CF-503141] | 4.9 µM | – | 0.368 µM |
| C[C@H](NC(=O)[C@H](CC(=O)N1CCCC[C@@H]1C)NS(=O)(=O)c1ccccc1)c1ncc(-c2ccc(F)cc2F)[nH]1 [CF-503142] | 8.13 µM | – | 0.65 µM |
| Cc1ccc(S(=O)(=O)N[C@@H](CC(=O)N2CCCC[C@@H]2C)C(=O)N[C@@H](C)c2ncc(-c3ccc(F)cc3F)[nH]2)cc1 [CF-503143] | 6.47 µM | 0.494 µM | – |
| CCS(=O)(=O)N[C@@H](CC(=O)N1CCCC[C@@H]1C)C(=O)N[C@@H](C)c1ncc(-c2ccc(F)cc2F)[nH]1 [CF-503144] | 28.2 µM | – | 1.9 µM |
| C[C@H](NC(=O)[C@H](CC(=O)N1CCCC[C@@H]1C)NCC(=O)c1ccccc1)c1ncc(-c2ccc(F)cc2F)[nH]1 [CF-503145] | 15.2 µM | – | 10 µM |
| C[C@H](NC(=O)[C@H](CC(=O)N1CCCC[C@@H]1C)NC(=O)C1CCC1)c1ncc(-c2ccc(F)cc2F)[nH]1 [CF-503146] | 2.41 µM | 0.163 µM | – |
| Cc1cc(C(=O)N[C@@H](CC(=O)N2CCCC[C@@H]2C)C(=O)N[C@@H](C)c2nc3ccccc3[nH]2)no1 [CF-503148] | 17.4 µM | – | 0.906 µM |
| CC(C)CCC(=O)N[C@@H](CC(=O)N1CCCC[C@@H]1C)C(=O)N[C@@H](C)c1nc2ccccc2[nH]1 [CF-503149] | 18.9 µM and 23.5 µM | – | 0.136 µM and 0.118 µM |
| CC(C)C(=O)CN[C@@H](CC(=O)N1CCCC[C@@H]1C)C(=O)N[C@@H](C)c1ncc(-c2ccc(F)cc2F)[nH]1 [CF-503151] | 9.9 µM | 11.4 µM | – |
| Cc1cc(C(=O)N[C@@H](CC(=O)N2CCC[C@@H]2c2ccccc2)C(=O)N[C@@H](C)c2nc3ccccc3[nH]2)no1 [CF-503152] | 11 µM and 9.7 µM | 0.184 µM and 0.127 µM | – |
| CC(C)CCC(=O)N[C@@H](CC(=O)N1CCC[C@@H]1c1ccccc1)C(=O)NC(C)c1nc2ccccc2[nH]1 (stereo partly drawn) [CF-503153] | 19.8 µM | – | 0.029 µM and 0.053 µM |
| CC(C)CCS(=O)(=O)N[C@@H](CC(=O)N1CCC[C@@H]1c1ccccc1)C(=O)NC(C)c1nc2ccccc2[nH]1 (stereo partly drawn) [CF-503154] | 11.8 µM | – | 0.116 µM and 0.202 µM |

| Structure (SMILES) | IC50 [1] | IC50 [2] | IC50 [2, 3] |
| --- | --- | --- | --- |
| CC1CC(C(=O)N[C@@H](CC(=O)N2CCC[C@@H]2c2ccccc2)C(=O)NC(C)c2nc3ccccc3[nH]2)C1 (stereo partly drawn) [CF-503155] | 8.4 µM | 0.125 µM | – |
| C[C@H](NC(=O)[C@H](CC(=O)N1CCC[C@@H]1c1ccccc1)NC(=O)CCC(C)(C)C)c1nc2ccccc2[nH]1 [CF-503156] | 16.6 µM | – | 0.088 µM |
| CC(C)CCS(=O)(=O)N[C@@H](CC(=O)N1CCCC[C@@H]1C)C(=O)N[C@@H](C)c1ncc(-c2ccc(F)cc2F)[nH]1 [CF-503157] | 7.5 µM and 9.66 µM | – | 1.07 µM and 0.691 µM |
| C[C@H](NC(=O)[C@H](CC(=O)N1CCCC[C@@H]1C)NC(=O)CCC(C)(C)C)c1ncc(-c2ccc(F)cc2F)[nH]1 [CF-503158] | 5.3 µM and 8.5 µM | – | 0.027 µM and 0.022 µM |
| CC(C)CCC(=O)N[C@@H](CC(=O)N1CCCC1)C(=O)N[C@@H](C)c1ncc(-c2ccc(F)cc2F)[nH]1 [CF-503159] | 10.4 µM | – | 3.47 µM |
| C[C@H](NC(=O)[C@H](CC(=O)N1CCCC1)NC(=O)CCC(C)(C)C)c1ncc(-c2ccc(F)cc2F)[nH]1 [CF-503160] | 10.3 µM | – | 0.796 µM |
| Cc1cc(C(=O)N[C@@H](CC(=O)N2CCCC2)C(=O)N[C@@H](C)c2nc(-c3ccc(F)cc3F)c[nH]2)no1 [CF-503161] | 16.7 µM | 3.34 µM | – |
| C[C@H](NC(=O)[C@H](CC(=O)N1CCC[C@@H]1C)NC(=O)CCC(C)(C)C)c1ncc(-c2ccc(F)cc2F)[nH]1 [CF-503162] | 6.3 µM and 5.7 µM | – | 0.173 µM and 0.128 µM |
| C[C@H](NC(=O)[C@H](CC(=O)N1CCC[C@@H]1C)NC(=O)CCC(C)(C)C)c1nc2ccccc2[nH]1 [CF-503163] | 16.5 µM | 3.5 µM | – |
| CC(C)CCNc1nc(C(=O)N[C@@H](C)C(=O)NCc2ccc(F)cc2F)cc(N2CCCC2)n1 [CF-503175] | 4.59 µM and 5.46 µM | – | 4.6 µM and 5.6 µM |
| CC(C)CCS(=O)(=O)N[C@@H](CC(=O)N1CCC[C@@H]1c1ccccc1)C(=O)N[C@@H](C)c1nc2ccccc2[nH]1 [CF-503183] | 10.1 µM and 9.7 µM and 10 µM | – | 0.224 µM and 0.242 µM and 0.124 µM |
| CC(C)CCS(=O)(=O)NC(CC(=O)N1CCCC1c1ccccc1)C(=O)NC(C)c1nc2ccccc2[nH]1 (stereo not drawn) [CF-503184] | 10.7 µM | 2.6 µM | – |
| C[C@H](NC(=O)N(CC(=O)N1CCCC[C@@H]1C)NC(=O)CCC(C)(C)C)c1ncc(-c2ccc(F)cc2F)[nH]1 [CF-503189] | 7.61 µM and 10.2 µM | – | 7.38 µM and 8.04 µM |
| C[C@@H](NC(=O)[C@H](CC(=O)N1CCC[C@@H]1C)NC(=O)CCC(C)(C)C)c1nc2ccccc2[nH]1 [CF-503190] | 17.3 µM | 2.66 µM | – |
| C[C@H]1CCCCN1C(=O)C[C@H](NC(=O)CCC(C)(C)C)C(=O)NCc1nc2ccccc2[nH]1 [CF-503191] | 10.3 µM | 0.456 µM | – |
| CC(C)CCC(=O)N[C@@H](CC(=O)N1CCCC[C@@H]1C)C(=O)N[C@H](C)c1nc2ccccc2[nH]1 [CF-503192] | 15.6 µM | – | 4.9 µM |
| CC(C)CCC(=O)N[C@@H](CC(=O)N1CCCC[C@@H]1C)C(=O)NCc1nc2ccccc2[nH]1 [CF-503193] | 17.6 µM | – | 0.647 µM |
| CCN(CC)C(=O)C[C@H](NC(=O)CCC(C)C)C(=O)N[C@@H](C)c1nc(-c2ccc(F)cc2F)c[nH]1 [CF-503197] | 7.28 µM | 1.11 µM | – |
| CC(C)CCC(=O)N[C@@H](CC(=O)N1CCCC[C@@H]1C)C(=O)N[C@@H](C)c1ncc(-c2ccc(F)cc2F)[nH]1 [CF-503198] | 7.25 µM | – | 1.57 µM |
| CC(C)CCC(=O)N[C@@H](CC(=O)N1CCCC[C@H]1C)C(=O)N[C@@H](C)c1nc(-c2ccc(F)cc2F)c[nH]1 [CF-503199] | 10.5 µM | 1 µM | – |
| CC(C)CCC(=O)N[C@@H](CC(=O)N(C)C(C)C)C(=O)N[C@@H](C)c1ncc(-c2ccc(F)cc2F)[nH]1 [CF-503200] | 14.9 µM | – | 0.919 µM |
| C[C@H](NC(=O)N(CC(=O)N1CCCC[C@@H]1C)NC(=O)OC(C)(C)C)C(=O)NCc1ccc(F)cc1F [CF-503201] | 8.5 µM and > 8 µM | – | 8.4 µM and > 8 µM |
| C[C@H](NC(=O)N(CC(=O)N1CCCC[C@@H]1C)NC(=O)CCC(C)(C)C)C(=O)NCc1ccc(F)cc1F [CF-503202] | 8.5 µM and 9.12 µM | – | 8.32 µM and 8.8 µM |
| C[C@H](NC(=O)[C@H](CC(=O)N1CCCC[C@@H]1C)NC(=O)CCC1CC1)c1ncc(-c2ccc(F)cc2F)[nH]1 [CF-503204] | 11.6 µM | – | 0.098 µM |
| C[C@H](NC(=O)[C@H](CC(=O)N1CCCC[C@@H]1C)NS(=O)(=O)CCC1CC1)c1ncc(-c2ccc(F)cc2F)[nH]1 [CF-503206] | 6.16 µM | – | 0.506 µM |
| CC(C)CCC(=O)N[C@@H](CC(=O)N1CCOC[C@@H]1C)C(=O)N[C@@H](C)c1nc(-c2ccc(F)cc2F)c[nH]1 [CF-503210] | 15.2 µM | 0.407 µM | – |
| CC(C)CCC(=O)N[C@@H](CC(=O)N1CCCC[C@@H]1C(F)(F)F)C(=O)N[C@@H](C)c1nc(-c2ccc(F)cc2F)c[nH]1 [CF-503212] | 4.87 µM | 0.346 µM | – |
